Assays:
[1] = DPPH radical scavenging assay; assay type: biochemical; conditions: supplement tables; for DPPH, mean±SD: n = 3
Protocol: The DPPH radical scavenging activity of the sample was assessed following a modified protocol based on a previous study. In each well of a 96-well plate, 10 μL of the sample was added, followed by 190 μL of 0.1 mM DPPH solution in 70% ethanol. The mixture was then incubated at room temperature in the dark for 30 min. After the incubation period, the absorbance of the mixture was measured at 517 nm. The DPPH radical scavenging activity was calculated using the following equation (1):
DPPHradicalscavengingactivity%=Acontrol–Asample/Acontrol×100 (1)
In this equation, Acontrol represents the absorbance of a control solution containing all reagents except for the test samples, while Asample is the absorbance of the mixture (the sample combined with 0.1 mM DPPH). To determine the Trolox equivalent antioxidant capacity (TEAC), a Trolox standard curve was utilized. The results were expressed as millimoles of Trolox equivalents per milligram of protein (mM TE/mg protein).

[2] = ABTS radical scavenging assay; assay type: biochemical; conditions: for ABTS, mean±SD / ABTS: supplement tables
Protocol: The ABTS radical scavenging activity of the sample was measured using a method adapted from Mirzaei et al.. The ABTS radical was generated by mixing 7 mM ABTS with 2.45 mM potassium persulfate in a 1:1 ratio and incubating the mixture in the dark at room temperature for 12 to 16 h. The resulting solution was then diluted to achieve an absorbance of 0.74 ± 0.03 at 734 nm, using deionized water for adjustments. Next, 10 μL of the sample was added to 190 μL of the ABTS solution. The mixture was incubated in the dark for 7 min, after which the absorbance was measured at 734 nm. The ABTS radical scavenging activity (%) was calculated using the following equation (2):
ABTSradicalscavengingactivity%=Acontrol–Asample/Acontrol×100 (2)
In this equation, Acontrol refers to the absorbance of the control solution (which contains all reagents except the test samples), while Asample refers to the absorbance of the mixture containing the sample and the ABTS solution. To determine the Trolox equivalent antioxidant capacity (TEAC), a Trolox standard curve was used, and the results were expressed as millimoles of Trolox equivalents per milligram of protein (mM TE/mg protein).

[3] = Ferric reducing antioxidant power (FRAP) assay; assay type: biochemical
Protocol: The FRAP assay was conducted following the method outlined by Rumpf et al.. The FRAP solution was prepared by mixing 300 mM acetate buffer (pH 3.6), 10 mM TPTZ (2,4,6-Tris(2-pyridyl)-s-triazine) in 40 mM hydrochloric acid, and 20 mM FeCl3 in a ratio of 10:1:1. In a 96-well plate, 10 μL of the sample was combined with 190 μL of the FRAP solution and incubated in the dark for 15 min. The absorbance of the mixture was then measured at 593 nm. FeSO4 was used to create the standard curve, and the results were expressed as millimoles of FeSO4 equivalent per milligram of protein (mM FeSO4/mg protein).

[4] = system: RAW 264.7; assay: Anti-inflammation assay: released NO in LPS-stimulated RAW 264.7 (Griess); assay type: cell-based, Murine; conditions: then 1 µg/mL LPS 24 h; for Released NO: peptide 10 µg/mL 1 h; for Released NO, mean±SD: peptide 10 µg/mL pre-treatment 1 h, Griess reagent, n = 3
Protocol: (§1) Murine macrophage cells (RAW 264.7; ATCC TIB-71™) were cultured in Dulbecco’s Modified Eagle’s Medium (DMEM) that was supplemented with 10% heat-inactivated fetal bovine serum (FBS) and 1% antibiotic solution. Colorectal adenocarcinoma cells (CaCo-2; ATCC HTB 37™) were cultured in Eagle’s Minimum Essential Medium (EMEM), also supplemented with 10% heat-inactivated FBS and 1% antibiotic solution. Both cell types were maintained in a humidified incubator with 5% CO2. The cell culture medium was refreshed every three days.
The anti-inflammation assay was conducted following the method described by Barzkar et al. with slight modifications. RAW 264.7 (1 x 10^5 cells) was seeded into a 96-well plate to allow for cell attachment. After 24 h, the cells were pre-treated with fresh medium containing peptide samples at a concentration of 10 µg/mL for 1 h. Subsequently, the treated cells were stimulated with 1 µg/mL lipopolysaccharide (LPS) for an additional 24 h. Unstimulated cells were included as a negative control. At the end of the treatment period, the conditioned medium was collected for the determination of released nitric oxide (NO). Griess’s reagent (Promega) was utilized to measure the NO concentration, following the manufacturer’s instructions. A NO calibration curve was generated to quantify the released NO in the conditioned medium.

[5] = system: RAW 264.7; assay: Cytotoxicity assessment (MTT); assay type: cell-based, Murine; conditions: peptide 10 µg/mL, 72 h; for Cell viability, mean±SD: relative to untreated cells, n = 3, SD
Protocol: as §1
Cytotoxicity assessment was performed following the method described by Yang et al., with slight modifications. RAW 264.7 was seeded with 1 x 10^5 cells in a 96-well plate with an appropriate cell culture medium. After allowing the cells to attach, the medium was replaced with a fresh cell culture medium containing the peptide samples at a concentration of 10 µg/mL. The treated cells were incubated for an additional 72 h. At the designated time, fresh medium was added, which included 3-(4,5-dimethylthiazol-2-yl)-2,5-diphenyltetrazolium bromide (MTT) at a concentration of 0.5 mg/mL. After 3 h, formazan crystals were observed. The medium was then removed, and the crystals were dissolved in 100% dimethyl sulfoxide (DMSO). A microplate reader (Synergy HTX; Biotek, Multi-Mode Reader, Winooski, VT, USA) was utilized to measure the absorbance at 570 nm (measurement wavelength) and 630 nm (reference wavelength). The percentage of cell viability was calculated relative to untreated cells using the following equation (5):
Cellviability%=ODtreatment–ODblank/ODuntreated–ODblank×100 (5)
Where ODtreatment is the absorbance of the treated sample, ODuntreated is the absorbance of the untreated sample, and ODblank is the absorbance from wells without treated and untreated samples.

[6] = 10 µL sample + 190 µL FRAP solution, 15 min dark, 593 nm, FeSO4 standard curve, mean ± SD, n = 3, SD

Sequence	DPPH, mean±SD [1]	DPPH ([1]; replicate 1) [TE/mg protein]	DPPH ([1]; replicate 2) [TE/mg protein]	DPPH ([1]; replicate 3) [TE/mg protein]	ABTS, mean±SD ([2]; mean ± SD, n = 3)	ABTS ([2]; replicate 1) [TE/mg protein]	ABTS ([2]; replicate 2) [TE/mg protein]	ABTS ([2]; replicate 3) [TE/mg protein]	FRAP [3, 6]	FRAP ([3]; supplement tables, replicate 1) [mM FeSO4/mg protein]	FRAP ([3]; supplement tables, replicate 2) [mM FeSO4/mg protein]	FRAP ([3]; supplement tables, replicate 3) [mM FeSO4/mg protein]	Released NO ([4]; replicate 1) [µM]	Released NO ([4]; replicate 2) [µM]	Released NO ([4]; replicate 3) [µM]	Released NO, mean±SD [4]	Cell viability, mean±SD [5] [%]	Cell viability ([5]; replicate 1) [%]	Cell viability ([5]; replicate 2) [%]	Cell viability ([5]; replicate 3) [%]	further results
EQIYPMGEGDEL [P4, synthesized peptide identified from jellyfish fraction PUR20C]	3.81±0.30^E TE/mg protein	3.64	3.64	4.17	103.41±1.20^F TE/mg protein	103.28	102.27	104.68	8.40 mM FeSO4/mg protein	8.89	8.47	7.84	38.96	35.86	36.55	37.12 µM	82.77±0.92	83.12	83.47	81.72	
DAENKENVEE [P18, synthesized peptide identified from jellyfish fraction PUR20C]	6.03±0.79^D TE/mg protein	5.23	6.03	6.82	6.05 TE/mg protein	5.71	5.51	6.91	4.40±0.43^H mM FeSO4/mg protein	4.89	4.05	4.26	34.13	31.37	31.03	32.18±1.70^F µM	89.16	86.29	87.17	94.02	
LGAEGRSP [P13, synthesized peptide identified from jellyfish fraction PUR20C]	5.85±0.66^D TE/mg protein	5.23	5.76	6.56	6.51±0.87^H TE/mg protein	5.91	6.11	7.51	4.82±0.73^H mM FeSO4/mg protein	4.89	5.52	4.05	35.17	35.51	37.58	36.09 µM	82.77±1.53	81.72	82.07	84.53	
NQKAMQELNE [P1, synthesized peptide identified from jellyfish fraction PUR20C]	1.16±0.15^H TE/mg protein	0.99	1.25	1.25	4.44 TE/mg protein	4.91	4.11	4.31	8.61±0.12^E mM FeSO4/mg protein	8.47	8.68	8.68	37.58	38.27	37.93	37.93 µM	85.94	88.04	85.76	84.00	
PMETDDQPNN [P17, synthesized peptide identified from jellyfish fraction PUR20C]	5.23±0.53^D TE/mg protein	4.70	5.23	5.76	4.64 TE/mg protein	4.11	4.11	5.71	6.50±1.59^G mM FeSO4/mg protein	7.63	7.21	4.68	34.48	34.82	34.82	34.71 µM	83.65	83.47	83.83	83.65	
RARVVPMY [P6, synthesized peptide identified from jellyfish fraction PUR20C]	3.28 TE/mg protein	3.11	2.84	3.90	139.87±0.50^A TE/mg protein	139.34	139.94	140.34	10.78±0.63^D mM FeSO4/mg protein	10.15	11.42	10.78	34.82	35.51	39.65	36.66 ± 2.61 µM	85.47	92.97	82.77	80.66	ABTS radical scavenging activity (TEAC) ([2]; 10 µL sample + 190 µL ABTS solution, 7 min dark, 734 nm, Trolox standard curve, mean ± SD, n = 3): highest activity

Reference: paper PMC11813147, “Bioactivity assessment of peptides derived from salted jellyfish (Rhopilema hispidum) byproducts” (PLOS ONE, 2025)
